The values below come from ChEMBL document CHEMBL2346550, “Synthesis of novel azo compounds containing 5(4H)-oxazolone ring as potent tyrosinase inhibitors” (Bioorg Med Chem, 2013).

Each structure is given as a SMILES string.

A short description of data set [1]: Cytotoxicity against mouse B16F10 cells assessed as cell viability at 20 ug/ml after 72 hrs by micro-culture MTT assay. It counts as cell-based, B16-F10. The note with it: read-out: Activity.
Another data set concerns B16-F10. Description: Inhibition of melanin production in mouse B16F10 cells at 20 ug/ml after 72 hrs. Format: functional. The settings on record: B16-F10, 72 h.
The next data set has as its target T1, Tyrosinase (Agaricus bisporus, UniProt O42713).
T1 sequence (O42713 whole entry): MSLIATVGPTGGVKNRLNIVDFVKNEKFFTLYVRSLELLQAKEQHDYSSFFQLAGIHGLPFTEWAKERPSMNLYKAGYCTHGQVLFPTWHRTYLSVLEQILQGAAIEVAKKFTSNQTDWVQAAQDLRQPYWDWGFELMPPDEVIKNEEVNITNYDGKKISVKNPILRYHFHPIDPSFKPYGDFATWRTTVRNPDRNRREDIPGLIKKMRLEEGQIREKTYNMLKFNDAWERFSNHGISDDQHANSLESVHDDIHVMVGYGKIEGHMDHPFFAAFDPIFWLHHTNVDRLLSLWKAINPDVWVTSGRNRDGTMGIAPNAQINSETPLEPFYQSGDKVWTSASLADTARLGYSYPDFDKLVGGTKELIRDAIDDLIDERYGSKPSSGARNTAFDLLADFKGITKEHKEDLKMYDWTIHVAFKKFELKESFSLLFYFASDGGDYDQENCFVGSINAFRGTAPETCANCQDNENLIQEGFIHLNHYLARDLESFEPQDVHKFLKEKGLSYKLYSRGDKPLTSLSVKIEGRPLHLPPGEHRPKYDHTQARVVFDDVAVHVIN
Briefly: Inhibition of diphenolase activity of mushroom tyrosinase assessed as decrease in L-DOPA chrome formation using L-DOPA as substrate preincubated with enzyme for 10 mins prior to substrate addition measured for 10 mins by spectrophotometric assay.

In the case of `CN(C)c1ccc(/N=N/c2ccc(C3=N/C(=C/c4ccc(F)cc4)C(=O)O3)cc2)cc1`, the viability at 72 h, 20 ug/ml in data set [1] amounted to 71.9%. This molecule returned an inhibition at 20 µg/mL with B16-F10 of 35.7%. Moreover, the IC50 at Tyrosinase came out at 2.01 µM.
The like results for `CC(=O)Oc1c(/N=N/c2ccc(C3=N/C(=C/c4ccc(OC(F)(F)F)cc4)C(=O)O3)cc2)ccc2ccccc12` were, in that order, 73.5%, 33.4% and 3.98 µM.
The like results for `CN(C)c1ccc(/N=N/c2ccc(C3=N/C(=C/c4ccc(OC(F)(F)F)cc4)C(=O)O3)cc2)cc1` were, in that order, 67.3%, 34.3% and 1.44 µM.
The like results for `CC(=O)Oc1ccc2ccccc2c1/N=N/c1ccc(C2=N/C(=C/c3ccc(OC(F)(F)F)cc3)C(=O)O2)cc1` were, in that order, 68.7%, 35.6% and 3.04 µM.
In the case of `CC(=O)Oc1c(/N=N/c2ccc(C3=N/C(=C/c4ccc(F)cc4)C(=O)O3)cc2)ccc2ccccc12`, the viability at 72 h, 20 ug/ml in data set [1] worked out at 72.1%. The molecule further yielded an inhibition at 20 µg/mL in the data set with B16-F10 of 31.3%. Moreover, at Tyrosinase, the 50% inhibitory concentration (IC50) turned out to be 4.33 µM.
Consider `CC(=O)Oc1ccc2ccccc2c1/N=N/c1ccc(C2=N/C(=C/c3ccc(F)cc3)C(=O)O2)cc1`, for which the viability at 72 h, 20 ug/ml in data set [1] worked out at 66.7%. Further, 20 µg/mL produced 32.5% inhibition in the data set with B16-F10. Further, at Tyrosinase, the IC50 is 3.91 µM.
